According to patent publication US9790235B2, “MK2 inhibitors and uses thereof” (Celgene CAR LLC, priority 2014, dated 2017):
Like-named read-outs stand apart in the source and are kept apart here.

Columns and labels:
MK2 [1] = molecular target: T1, MK2 (Homo sapiens (Human), UniProt P49137)
Protocol: Aliquots of the resulting mixture (6 μL each) were diluted with 0.2% trifluoroacetic acid (TFA, 10 μL) prior to micro C4 ZipTipping directly onto the MALDI target using sinapinic acid as the desorption matrix (10 mg/ml in 0.1% TFA:acetonitrile 50:50, v/v). The centroid mass of the target protein in the control sample was compared with the centroid mass of the target protein incubated with compound. A shift in the centroid mass of the treated protein compared to the untreated protein was divided by the molecular weight of the compound. This number corresponds to the percentage of modified protein (a measure of the proportion of total target protein covalently bound to the test compound) after one hour incubation.
3 μL of magnetic Ni-NTA beads were added to the 6 μL aliquots of sample, washed, eluted with 0.2% trifluoroacetic acid (TFA, 2 μL), and spotted directly onto the MALDI target using sinapinic acid as the desorption matrix (10 mg/ml in 0.1% TFA:acetonitrile 50:50, v/v). The centroid mass of the target protein in the control sample was compared with the centroid mass of the target protein incubated with compound. A shift in the centroid mass of the treated protein compared to the untreated protein was divided by the molecular weight of the compound. This number corresponds to the percentage of modified protein (a measure of the proportion of total target protein covalently bound to the test compound) after one hour incubation.

MK2 [2] = molecular target: T1, MK2; test: MK2 cellular assay, total and phospho-Hsp27 (Serine 78) by MSD ELISA (Thp1); type: cell-based
Protocol: MK2 Cellular Assay—Detection of Total and Phospho-Hsp27 (Serine 78) by MSD ELISA (Thp1)
Compounds of the invention were assayed in Thp-1 human acute monocytic leukemia cells to measure inhibition of MK2 activity. Thp-1 cells were grown in culture medium containing RPMI/10% FBS (fetal bovine serum)/0.05 mM 2-mercaptoethanol. 72 hours prior to the assay, 8×10^4 cells per well were plated in a 96 well flat bottom plate along with 10 ng/mL phorbol 12-myristate 13-acetate (PMA). Cells were cultured in an incubator at 37° C. until needed for the assay. Cell plate media was replaced with culture media just prior to assay while compound dilutions were being made.
Stock solutions of test compound, 1 mM in DMSO, were prepared. 0.9 μl of test compound was added to 300 μl cell media for a starting concentration of 3000 nM. […] Cell plate media was discarded, followed by addition of 100 μl of the compound containing media. The resulting preparation was incubated at 37° C. for 1 hour.
Test compound-containing cell assay media was removed and the cells were washed once with cell assay media. Cell assay media containing 50 ng/mL LPS (lipopolysaccharide) was added to the each well and incubated for 45 minutes. Following LPS incubation, the cells were washed once with PBS (phosphate-buffered saline) and lysed with 60 μl Cell Extraction Buffer (Invitrogen #FNN0011) plus protease and phosphatase inhibitors. The plate was then stored at −80° C. until further analysis.
The MULTI-SPOT Phospho(Ser78)/Total HSP27 ELISA Assay kit was purchased from Meso Scale […] (MSD; catalog #K15128D). […] The pre-coated MSD plate was blocked with 150 μL/well of 3% BSA in MSD wash buffer. The preparation was placed on a shaker at room temperature for an hour. While the ELISA plate was blocked, the cell assay plate stored at −80° C. was placed on a shaker at 4° C. for 1 hour to thaw.
The blocked MSD plate was washed on a plate washer, tapping out the last bit of wash solution, followed by addition of 30 μl of the lysate from the cell assay plate. The preparation was covered and incubated for 1 hour at room temperature. The lysate was removed, the plate was washed 3 times on a plate washer and the last bit of wash buffer was tapped out and replaced with 25 μl/well detection antibody (anti-total HSP27 conjugated with an electrochemiluminescent compound, MSD SULFO-TAG label, supplied in kit) made in 1% BSA/MSD wash buffer. The plate was incubated for 1 hour at room temperature on a shaker, followed by 3 washes. The last bit of wash buffer was tapped out. 150 μl/well 1×MSD read buffer was added (4× read buffer supplied with kit) and the plate was analyzed on the MSD SECTOR® Imager for analysis. The SECTOR® Imager measures intensity of emitted light to provide a quantitative measure of phosphorylated HSP27 (Ser78) and total HSP27 present in the sample. The relative percent phosphoprotein in a sample is calculated by dividing the Phospho-HSP27 signal intensity over the total HSP27 signal intensity measured in each well.

[3] = molecular target: p38α activated, mitogen-activated protein kinase-activated protein kinase 2 (MAPKAP-K2 or MK2) enzyme (Homo sapiens (Human), UniProt P49137); test: MK2 Omnia continuous-read kinase assay for compound potency; type: biochemical; conditions: [MK-2]=0.4 nM, [ATP]=10 μM, [ST3-Sox]=10 μM; read-out: MK2 IC50
From the text: Mitogen-Activated Protein Kinase-Activated Protein Kinase 2 Omnia® Assay for Compound Potency Assessment:
The protocol below describes a continuous-read kinase assay optimized to measure potency of compounds against p38α activated, mitogen-activated protein kinase-activated protein kinase 2 (MAPKAP-K2 or MK2) enzyme. Further details of this assay are described by Life Technologies, Carlsbad, Calif. on their website at the following URL: http://tools.lifetechnologies.com/content/sfs/manuals/omnia_kinase_assay_man.pdf.
[Reagent] used: • [MK-2]=0.4 nM, • [ATP]=10 μM and • [ST3-Sox]=10 μM (ATP^appKM=10 μM)
Kinase reactions were started with the addition of 45 μL of the ATP-peptide substrate S/T3-Sox mix and monitored every 71 seconds for 120 minutes at λex360/λem485 in a Synergy H4 plate reader from BioTek (Winooski, Vt.) at room temperature.
Background signals from the no enzyme control wells were subtracted from all progress curves. The initial linear portions of the net progress curves were fit according to a linear equation to yield the slope and percentage of inhibition (% inhibition) at each compound concentration. The net progress curves obtained during the first two hours of reactions were also fit according to an ascending single-exponential equation (Eq. 1) to yield kobs values at each compound concentration. Plots of % Inhibition versus inhibitor concentrations were fit according to a dose-response equation (Eq. 2) to generate IC50 and Hill slope values while plots of kobs versus inhibitor concentration were fit according to Equation 3 (Eq. 3) to generate apparent kinact/KI values using the GraphPad PRISM software (Version 6.00; GraphPad San Diego, Calif.).
[formula] where F is the fluorescence intensity from the plate reader, V0 is a constant reflecting the relationship between the instrument readout and product concentration, t is time, e is Euler's number, and kobs is the observed inactivation rate constant.
[formula] where % Inhibition is percentage of inhibition, IC50 is half maximal inhibitory concentration, [I] is the inhibitor concentration, and n is the Hill slope.

[4] = percentage of modified protein after 60 minutes at room temperature, 10-fold excess of compound, MALDI (I-1 to I-50), magnetic bead MALDI (I-51 to I-129)
[5] = Thp-1 cells, 1 hour compound, 50 ng/mL LPS 45 minutes, p-HSP27 (Ser78)/total HSP27, read-out: pHSP27 signaling EC50
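Wherever Mass Modification is given: covalent binding read from centroid mass shift of compound-treated versus untreated intact MK2, shift divided by compound molecular weight, giving fraction of total protein bound.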

T1 sequence (P49137 whole entry): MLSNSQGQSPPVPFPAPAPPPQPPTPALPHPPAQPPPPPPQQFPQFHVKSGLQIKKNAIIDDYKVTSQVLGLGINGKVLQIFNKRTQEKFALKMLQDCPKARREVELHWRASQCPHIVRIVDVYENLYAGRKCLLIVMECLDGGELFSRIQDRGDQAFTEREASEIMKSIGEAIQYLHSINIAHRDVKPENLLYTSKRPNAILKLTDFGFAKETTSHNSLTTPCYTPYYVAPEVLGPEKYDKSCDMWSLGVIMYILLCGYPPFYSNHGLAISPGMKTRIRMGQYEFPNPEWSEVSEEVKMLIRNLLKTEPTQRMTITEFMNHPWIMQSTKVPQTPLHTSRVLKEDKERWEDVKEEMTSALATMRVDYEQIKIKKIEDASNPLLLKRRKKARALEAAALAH
Chain of p38α activated, mitogen-activated protein kinase-activated protein kinase 2 (MAPKAP-K2 or MK2) enzyme (P49137 whole entry): as above

| SMILES | EC50 (MK2 [2]; [5]) [nM] | IC50 [3] [nM] | EC50 (MK2 [2]) [nM] | Mass Modification (MK2 [1]; [4]) | Mass Modification (MK2 [1]) |
| --- | --- | --- | --- | --- | --- |
| NC[C@@H]1CNc2c(sc3ccc4nc(Nc5cc(Cl)ncn5)ccc4c23)C(=O)N1 [I-28, (R)-10-(aminomethyl)-3-((6-chloropyrimidin-4-yl)amino)-9,10,11,12-tetrahydro-8H-[1,4]diazepino[5′,6′:4,5]thieno[3,2-f]quinolin-8-one] | > 1000 | < 100 |  | E (mass modification of ≧70%) |  |
| C[C@@H]1CNc2c(sc3ccc4nc(Oc5ncncc5CN(C)C(C)(C)C)ccc4c23)C(=O)N1 [I-104, (R)-3-((5-((tert-butyl(methyl)amino)methyl)pyrimidin-4-yl)oxy)-10-methyl-9,10,11,12-tetrahydro-8H-[1,4]diazepino[5′,6′:4,5]thieno[3,2-f]quinolin-8-one] | > 1000 | 501 to 999 |  |  |  |
| CO[C@@H]1CCCN(Cc2cnc(Cl)nc2Oc2ccc3c(ccc4sc5c(c43)NC[C@@H](C)NC5=O)n2)C1 [I-107, (R)-3-((2-chloro-5-(((R)-3-methoxypiperidin-1-yl)methyl)pyrimidin-4-yl)oxy)-10-methyl-9,10,11,12-tetrahydro-H-[1,4]diazepino[5′,6′:4,5]thieno[3,2-f]quinolin-8-one] | < 100 | 101 to 500 |  | E (mass modification of ≧70%) |  |
| C[C@@H]1CNc2c(sc3ccc4nc(Nc5nc(Cl)ncc5C(=O)NC5COC5)ccc4c23)C(=O)N1 [I-20, (R)-2-chloro-4-((10-methyl-8-oxo-9,10,11,12-tetrahydro-8H-[1,4]diazepino[5′,6′:4,5]thieno[3,2-f]quinolin-3-yl)amino)-N-(oxetan-3-yl)pyrimidine-5-carboxamide] | > 1000 |  |  | G (mass modification ≦30%) |  |
| C[C@@H]1CNc2c(sc3ccc4nc(Nc5nccc(Cl)n5)ccc4c23)C(=O)N1 [I-13, (R)-3-((4-chloropyrimidin-2-yl)amino)-10-methyl-9,10,11,12-tetrahydro-8H-[1,4]diazepino[5′,6′:4,5]thieno[3,2-f]quinolin-8-one] | > 1000 |  |  |  | G (key: E: mass modification of ≧70%; F: mass modification of 31-69%; G: mass modification ≦30%) |
| C[C@@H]1CNc2c(sc3ccc4nc(Oc5nc(Cl)ncc5CN5CCC[C@H]5C)ccc4c23)C(=O)N1 [I-99, (R)-3-((2-chloro-5-(((R)-2-methylpyrrolidin-1-yl)methyl)pyrimidin-4-yl)oxy)-10-methyl-9,10,11,12-tetrahydro-8H-[1,4]diazepino[5′,6′:4,5]thieno[3,2-f]quinolin-8-one] | < 100 | < 100 |  |  |  |
| C[C@@H]1CNc2c(sc3ccc4nc(Oc5cc(CNC(C)(C)C)nc(Cl)n5)ccc4c23)C(=O)N1 [I-117, (R)-3-((6-((tert-butylamino)methyl)-2-chloropyrimidin-4-yl)oxy)-10-methyl-9,10,11,12-tetrahydro-8H-[1,4]diazepino[5′,6′:4,5]thieno[3,2-f]quinolin-8-one] | < 100 |  |  |  |  |
| CN(C)C[C@@H]1CNc2c(sc3ccc4nc(Nc5cc(F)ncn5)ccc4c23)C(=O)N1 [I-31, (S)-10-((dimethylamino)methyl)-3-((6-fluoropyrimidin-4-yl)amino)-9,10,11,12-tetrahydro-8H-[1,4]diazepino[5′,6′:4,5]thieno[3,2-f]quinolin-8-one] | > 1000 |  |  | F (mass modification of 31-69%) |  |
| C[C@@H]1CNc2c(sc3ccc4nc(Oc5nc(Cl)ncc5-c5cccnc5)ccc4c23)C(=O)N1 [I-123, (R)-3-((2-chloro-5-(pyridin-3-yl)pyrimidin-4-yl)oxy)-10-methyl-9,10,11,12-tetrahydro-8H-[1,4]diazepino[5′,6′:4,5]thieno[3,2-f]quinolin-8-one] | < 100 | < 100 |  |  |  |
| C[C@@H]1CNc2c(sc3ccc4nc(Nc5nc(Cl)ncc5C(=O)NC5CC5)ccc4c23)C(=O)N1 [I-21, (R)-2-chloro-N-cyclopropyl-4-((10-methyl-8-oxo-9,10,11,12-tetrahydro-8H-[1,4]diazepino[5′,6′:4,5]thieno[3,2-f]quinolin-3-yl)amino)pyrimidine-5-carboxamide] | > 1000 |  |  | G (mass modification ≦30%) |  |

Now from value to compound, other results behind:

| EC50 (MK2 [2]; [5]) [nM] | IC50 [3] [nM] | EC50 (MK2 [2]) [nM] | SMILES | Mass Modification (MK2 [1]; [4]) | Mass Modification (MK2 [1]) |
| --- | --- | --- | --- | --- | --- |
|  | < 100 | 501 to 999 | C[C@@H]1CNc2c(sc3ccc4nc(Nc5nc(F)cc(OC6COC6)n5)ccc4c23)C(=O)N1 [I-42, (R)-3-((4-fluoro-6-(oxetan-3-yloxy)pyrimidin-2-yl)amino)-10-methyl-9,10,11,12-tetrahydro-8H-[1,4]diazepino[5′,6′:4,5]thieno[3,2-f]quinolin-8-one] | G (mass modification ≦30%) |  |
| < 100 | < 100 |  | C[C@@H]1CNc2c(sc3ccc4nc(Oc5nc(Cl)ncc5CN5CCC(OCCF)CC5)ccc4c23)C(=O)N1 [I-131, (R)-3-((2-chloro-5-((4-(2-fluoroethoxy)piperidin-1-yl)methyl)pyrimidin-4-yl)oxy)-10-methyl-9,10,11,12-tetrahydro-8H-[1,4]diazepino[5′,6′:4,5]thieno[3,2-f]quinolin-8-one] | E (mass modification of ≧70%) |  |
| 101 to 500 | < 100 |  | C[C@@H]1CNc2c(sc3ccc4nc(Nc5nc(Cl)nc(N6CCN(C)CC6)n5)ccc4c23)C(=O)N1 [I-10, (R)-3-((4-chloro-6-(4-methylpiperazin-1-yl)-1,3,5-triazin-2-yl)amino)-10-methyl-9,10,11,12-tetrahydro-8H-[1,4]diazepino[5′,6′:4,5]thieno[3,2-f]quinolin-8-one] | G (mass modification ≦30%) |  |
| > 1000 | < 100 |  | C[C@@H]1CNc2c(sc3ccc4nc(Nc5cc(F)nc(OCCN6CCN(C)CC6)n5)ccc4c23)C(=O)N1 [I-48, (R)-3-((6-fluoro-2-(2-(4-methylpiperazin-1-yl)ethoxy)pyrimidin-4-yl)amino)-10-methyl-9,10,11,12-tetrahydro-8H-[1,4]diazepino[5′,6′:4,5]thieno[3,2-f]quinolin-8-one] |  |  |
| < 100 | < 100 |  | C[C@@H]1CNc2c(sc3ccc4nc(Oc5nc(Cl)ncc5CN5CCC[C@@H]5C)ccc4c23)C(=O)N1 [I-101] |  |  |
| < 100 | 101 to 500 |  | CO[C@H]1CCCN(Cc2cnc(Cl)nc2Oc2ccc3c(ccc4sc5c(c43)NC[C@@H](C)NC5=O)n2)C1 [I-106, (R)-3-((2-chloro-5-(((S)-3-methoxypiperidin-1-yl)methyl)pyrimidin-4-yl)oxy)-10-methyl-9,10,11,12-tetrahydro-8H-[1,4]diazepino[5′,6′:4,5]thieno[3,2-f]quinolin-8-one] |  |  |
